Key:
[1] = tested on: HDAC3 knockdown cells; assay: MTT cell growth in HDAC3 knockdown cells; assay type: cell-based, human
Experimental: HDAC1, HDAC2 and HDAC3 pLKO.1 shRNA vectors were obtained from the RNA Interference Screening Facility at the Dana-Farber Cancer institute. Recombinant lentivirus was produced and infection of MM cells was performed using standard methods in the art.
In addition, the effect of bortezomib on HDAC3 knockdown cells was examined. RPMI8226 (FIG. 7B, left panel) and MM.1S (FIG. 7B, right panel) cells were infected with Luc or HDAC3 (#1 and #2) shRNAs. Cells were then cultured with or without bortezomib (3 nM) for 48 hours and cell growth was assessed by MTT assay. Data represent mean±SD from triplicate cultures.
Also, experiments were conducted to determine whether dual inhibition of both HDAC3 and HDAC6 was more cytotoxic than either HDAC3 or HDAC6 when combined with bortezomib. Cell growth was assayed by MTT assay in the presence of Luc (control), sh1 or sh2 shRNAs against HDAC3 alone, or in combination with a selective HDAC6 inhibitor—tubastatin-A, or in combination with both tubastatin-A and bortezomib.

[2] = tested on: pSTAT3 (Tyr705); assay: Immunoblot of STAT3 phosphorylation in MM cells; assay type: cell-based, human; conditions: RPMI8226 infected with shRNAs, bortezomib 5 nM, 6 hours (FIG. 7C)
Experimental: MM cells were harvested and lysed using sodium dodecyl sulfate-polyacrylamide gel electrophoresis (SDS-PAGE) sample buffer containing 60 mM Tris-HCl, pH 6.8, 2% SDS, 10% glycerol, 0.005% bromophenol blue, 5 mM ethylenediaminetetraacetic acid, 5 mM NaF, 2 mM […], 1 mM phenylmethylsulfonyl fluoride (PMSF), 5 μg/mL leupeptin, and 5 μg/mL aprotinin; and then heated at 100° C. for 5 min. After the determination of protein concentration using DC protein assay (Bio-Rad, Hercules, Calif.), β-mercaptoethanol (β-ME) was added to the whole-cell lysates to a 2% final β-ME concentration. The whole-cell lysates were subjected to SDS-PAGE, transferred to nitrocellulose membranes (Bio-Rad, Hercules, Calif.) or polyvinylidene fluoride membranes (Millipore, Billerica, Mass.), and immunoblotted with anti-histone H3, -HDAC1, -HDAC2, -HDAC3, -Acetyl-histone H2A (Lysine 5) (Ac-H2AK5), -Acetyl-histone H2B (lysine 5) (Ac-H2 BK5), -Acetyl-histone H3 (lysine 9) (Ac-H3K9), -Acetyl-histone H4 (lysine 8) (Ac-H4K8), -glyceraldehyde-3-phosphate dehydrogenase (GAPDH), -poly (ADP-ribose) polymerase (PARP), -caspase-3, -caspase-8, -caspase-9, -Signal transducers and activators of transcription 3 (STAT3), -phospho-STAT3 (pSTAT3) (tyrosine 705), -pSTAT3 (serine 727), -p21, -Janus kinase 2 (JAK2), -acetylated-Lysine (Ac-K), and anti-phosphorylated-tyrosine antibodies (Abs; Cell Signaling Technology, Beverly, Mass.).
MM.1S, U266, and INA6 cells were cultured with DMSO control or LBH589 (50 and 100 nM) for 8 h.
MM.1S cells pretreated with or without 50 nM LBH589 for 8 hours were then treated with IL-6 (10 ng/mL) or BMSC culture supernatants (#1 and #2) for 15 minutes. Whole cell lysates were subjected to immunoblotting with anti-pSTAT3 (Tyr705) and STAT3 Abs.
In addition, INA-6 cells were cultured with DMSO control, LBH589 (50 nM), TSA (1 μM) or SAHA (2 μM) for 8 hours. Whole cell lysates were subjected to immunoblotting with anti-pSTAT3 (Tyr705), STAT3, and GAPDH Abs.
Whole cell lysates were subjected to immunoblotting with anti-pSTAT3 (Tyr705), -STAT3, -pERK1/2 (Thr202/204), and -ERK1/2 Abs (FIG. 6G).
See, e.g., Hideshima et al. Blood. 2006, 107:4053-4062. Since bortezomib upregulates activated STAT3 in head and neck squamous cell carcinoma (see, e.g., Li et al. Mol Cancer Ther 2009. 8:2211-2220), experiments were conducted to test whether bortezomib enhances p-STAT3 in MM cells. RPMI8226 cells were infected with Luc, HDAC1 (sh1), HDAC2 (sh1) or HDAC3 (sh1) shRNAs and then treated with or without bortezomib (5 nM) for 6 hours. Whole cell lysates were subjected to immunoblotting with anti-STAT3, -pSTAT3 (Tyr705), -pERK1/2 (Thr202/204) and -ERK1/2 Abs.

[3] = tested on: JMJ family demethylases, including several variants of JMJD2 and JMJD1; conditions: Kruidenier et al. 2012; cited from earlier work
[4] = tested on: JMJD2A in HeLa cells; conditions: read-out: IC50 H3K9me3 demethylation by JMJD2A, King et al. 2010; cited from earlier work
[5] = target: PHF8 (Homo sapiens, UniProt Q9UPP1); conditions: King et al. 2010; cited from earlier work
Chain of PHF8 (Q9UPP1 whole entry, species assumed): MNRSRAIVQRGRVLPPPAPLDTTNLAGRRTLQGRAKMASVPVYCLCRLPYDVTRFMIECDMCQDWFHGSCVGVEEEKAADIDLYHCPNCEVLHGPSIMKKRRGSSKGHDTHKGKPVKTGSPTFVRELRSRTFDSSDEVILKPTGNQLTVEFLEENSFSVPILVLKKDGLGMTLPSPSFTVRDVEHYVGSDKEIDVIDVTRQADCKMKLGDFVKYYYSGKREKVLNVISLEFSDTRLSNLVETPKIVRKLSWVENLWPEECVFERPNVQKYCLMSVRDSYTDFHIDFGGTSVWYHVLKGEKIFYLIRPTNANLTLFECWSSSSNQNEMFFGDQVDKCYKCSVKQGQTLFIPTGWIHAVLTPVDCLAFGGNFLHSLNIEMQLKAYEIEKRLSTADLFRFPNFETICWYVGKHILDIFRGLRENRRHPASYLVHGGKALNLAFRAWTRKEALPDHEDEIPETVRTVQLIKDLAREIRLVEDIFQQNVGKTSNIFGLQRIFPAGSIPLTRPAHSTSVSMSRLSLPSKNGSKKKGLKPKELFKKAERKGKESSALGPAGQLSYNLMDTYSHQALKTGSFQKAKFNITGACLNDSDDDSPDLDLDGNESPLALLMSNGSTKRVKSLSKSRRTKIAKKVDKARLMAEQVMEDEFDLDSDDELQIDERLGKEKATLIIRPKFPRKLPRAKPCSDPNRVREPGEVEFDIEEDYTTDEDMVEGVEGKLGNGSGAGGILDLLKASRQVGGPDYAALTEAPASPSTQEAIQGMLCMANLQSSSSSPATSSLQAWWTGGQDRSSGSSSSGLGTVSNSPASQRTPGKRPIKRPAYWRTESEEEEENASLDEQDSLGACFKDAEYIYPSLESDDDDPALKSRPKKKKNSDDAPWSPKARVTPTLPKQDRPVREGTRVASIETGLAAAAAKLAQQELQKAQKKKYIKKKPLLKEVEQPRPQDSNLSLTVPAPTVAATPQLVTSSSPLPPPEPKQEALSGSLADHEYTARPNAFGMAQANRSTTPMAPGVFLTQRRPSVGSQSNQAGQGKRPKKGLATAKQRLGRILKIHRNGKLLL

[6] = tested on: RPMI8226 cells; assay: Combination with bortezomib, MTT cytotoxicity, combination index; assay type: cell-based, human; conditions: for CI (combination index): RPMI8226, MTT, 24 h
Experimental: The combined effect of drugs was analyzed by isobologram analysis using the Compusyn software program (ComboSyn, Inc.); a combination index (CI)<1 is indicative of a synergistic effect.
All experiments were performed 3 times in quadruplicate. Data represent mean±SD (FIG. 7D).

[7] = tested on: MM cell lines; assay: Cell growth inhibition assay (MTT) in MM cell lines; assay type: cell-based, human; conditions: MM cell lines, 48 hours, MTT (FIG. 1A)
Experimental: To measure proliferation of MM cells, the rate of DNA synthesis was measured by ^3[H]-thymidine (Perkin-Elmer) uptake.
The growth inhibitory effect of Merck60 (HDACL, 2 inhibitor previously reported as compound #60 by Method et al. Bioorg. Med. Chem. Lett. 2008. 18(3):973-8) versus MS275 (HDAC1, 2, 3 inhibitor) was examined in MM cell lines using MTT assay. MM cells were cultured with Merck60 (left panel) or MS275 (right panel) for 48 hours. Cell growth was assessed by MTT assay. All experiments were performed 3 times in quadruplicate. Data represent mean±SD.
Cell growth was assessed by MTT assay. All experiments were performed 3 times in quadruplicate. Data represent mean±SD.

[8] = tested on: RPMI8226 cells; assay: Immunoblot of histone acetylation in RPMI8226 cells; assay type: cell-based, human; conditions: RPMI8226, 12 h, compared with Merck60 (FIG. 1C)
[9] = HDAC inhibitor 1 μM + bortezomib 4 nM
[10] = HDAC inhibitor 2 μM + bortezomib 2 nM
[11] = HDAC inhibitor 2 μM + bortezomib 3 nM
[12] = HDAC inhibitor 2 μM + bortezomib 4 nM
[13] = HDAC inhibitor 3 μM + bortezomib 2 nM
[14] = HDAC inhibitor 3 μM + bortezomib 3 nM
[15] = HDAC inhibitor 3 μM + bortezomib 4 nM

Row | Compound | CI (combination index) [6, 9] | CI (combination index) [6, 10] | CI (combination index) [6, 11] | CI (combination index) [6, 12] | CI (combination index) [6, 13] | CI (combination index) [6, 14] | CI (combination index) [6, 15] | MM cell growth inhibition [7] | other results
1 | CC(C)CC(NC(=O)[C@H](Cc1ccccc1)NC(=O)c1cnccn1)B(O)O (stereo in doubt) [bortezomib, [(1R)-3-methyl-1-[[(2S)-1-oxo-3-phenyl-2-[(pyrazinylcarbonyl)amino]propyl]amino]butyl]boronic acid] |  |  |  |  |  |  |  |  | cytotoxicity in HDAC3 knockdown cells ([1]; RPMI8226 and MM.1S with HDAC3 shRNAs, bortezomib 3 nM, 48 hours, MTT (FIG. 7B)): significantly enhances cytotoxicity; p-STAT3 [2]: upregulated p-STAT3
2 | O=C([O-])CCNc1cc(N2CCc3ccccc3CC2)nc(-c2ccccn2)n1.[Na+] [GSK J1, 3-((6-(4,5-dihydro-1H-benzo[d]azepin-3(2H)-yl)-2-(pyridin-2-yl)pyrimidin-4-yl)amino)propanoate, monosodium salt] |  |  |  |  |  |  |  |  | activity against a panel of additional JMJ family demethylases [3]: inactive
3 | O=C(O)c1ccc(O)c2ncccc12 [IOX1, 8-hydroxy-5-quinolinecarboxylic acid] |  |  |  |  |  |  |  |  | IC50 [4]: 87 µM; IC50 [5]: 13.3 µM
4 | Nc1ccccc1NC(=O)c1ccc(CNC(=O)OCc2cccnc2)cc1 [MS275] | 0.81 | 0.56 | 0.63 | 0.76 | 0.53 | 0.62 | 0.77 | significant MM cell growth inhibition | cytotoxicity in combination with bortezomib ([6]; RPMI8226, bortezomib 0-4 nM + 1-3 μM, 24 hours (FIG. 7A)): synergistic cytotoxicity; acetylation of histones (H2A, H2B, H3 and H4) [8]: more potently induced acetylation of histones
5 | CC(=O)Nc1ccc(C(=O)Nc2cc(-c3cccs3)ccc2N)cc1 [Merck60, 4-acetamido-N-(2-amino-5-(thiophen-2-yl)phenyl)benzamide] | 1.19 | 1.54 | 1.21 | 1.34 | 1.45 | 1.4 | 1.55 | only a modest growth inhibition effect | CI (combination index) ([6]; HDAC inhibitor 1 μM + bortezomib 2 nM): 1.95; CI (combination index) ([6]; HDAC inhibitor 1 μM + bortezomib 3 nM): 1.06
6 | CN1CCc2c(c3ccccc3n2Cc2ccc(C(=O)NO)cc2)C1 [tubastatin-A] |  |  |  |  |  |  |  |  | cytotoxicity of combined HDAC3 knockdown with bortezomib ([1]; MTT, tubastatin-A added (FIG. 8B)): further enhanced cytotoxicity

From US9988343B2, “Inhibitors of histone deacetylase” (Dana-Farber Cancer Institute, Inc., priority 2013, dated 2018)
